In publication PMC10981597 (Amino Acids, 2024):

What was measured:
[1] = format: physicochemical; conditions: pH 7.4
[2] = format: physicochemical; conditions: pH 6.5
[3] = human, serum

Row | SMILES | ANS fluorescence intensity with increasing peptide concentration (self-assembly) [1] | self-assembled morphology by TEM [2] | remaining at 24 h [3] [%]
1 | CCCCCCCCCCCCCCNCCCC[C@@H]1NC(=O)CNC(=O)[C@H](CCCCNCCCCCCCCCCCCCC)NC(=O)[C@@H](N)CSSC[C@@H]2NC(=O)[C@@H]3CSSC[C@@H](C(N)=O)NC(=O)[C@H](CCCCN)NC(=O)CNC(=O)[C@H](CO)NC(=O)[C@H](CCCNC(=N)N)NC(=O)[C@H](CSSC[C@H](NC(=O)[C@H](CCCCN)NC(=O)[C@H](C)NC(=O)CNC1=O)C(=O)N[C@@H](CO)C(=O)N[C@@H](CCCNC(=N)N)C(=O)N[C@@H](CC(C)C)C(=O)N[C@@H](CCSC)C(=O)N[C@@H](Cc1ccc(O)cc1)C(=O)N[C@@H](CC(=O)O)C(=O)N3)NC(=O)[C@H](CO)NC(=O)CNC(=O)[C@H]([C@@H](C)O)NC2=O [K2-K4-MVIIA] | significant increase in fluorescence intensity | nanomicellar structures | 75.6
2 | CCCCCCCCCCCCCCNCCCC[C@@H]1NC(=O)[C@@H](N)CSSC[C@@H]2NC(=O)[C@@H]3CSSC[C@@H](C(N)=O)NC(=O)[C@H](CCCCN)NC(=O)CNC(=O)[C@H](CO)NC(=O)[C@H](CCCNC(=N)N)NC(=O)[C@H](CSSC[C@H](NC(=O)[C@H](CCCCN)NC(=O)[C@H](C)NC(=O)CNC(=O)[C@H](CCCCN)NC(=O)CNC1=O)C(=O)N[C@@H](CO)C(=O)N[C@@H](CCCNC(=N)N)C(=O)N[C@@H](CC(C)C)C(=O)N[C@@H](CCSC)C(=O)N[C@@H](Cc1ccc(O)cc1)C(=O)N[C@@H](CC(=O)O)C(=O)N3)NC(=O)[C@H](CO)NC(=O)CNC(=O)[C@H]([C@@H](C)O)NC2=O [K2-MVIIA] | significant increase in fluorescence intensity | nanomicellar structures | 78.7
3 | CSCC[C@@H]1NC(=O)[C@H](CC(C)C)NC(=O)[C@H](CCCNC(=N)N)NC(=O)[C@H](CO)NC(=O)[C@@H]2CSSC[C@@H]3NC(=O)[C@H](CO)NC(=O)CNC(=O)[C@H]([C@@H](C)O)NC(=O)[C@H](CSSC[C@H](N)C(=O)N[C@@H](CCCCN)C(=O)NCC(=O)N[C@@H](CCCCN)C(=O)NCC(=O)N[C@@H](C)C(=O)N[C@@H](CCCCN)C(=O)N2)NC(=O)[C@H](CSSC[C@@H](C(N)=O)NC(=O)[C@H](CCCCN)NC(=O)CNC(=O)[C@H](CO)NC(=O)[C@H](CCCNC(=N)N)NC3=O)NC(=O)[C@H](CC(=O)O)NC(=O)[C@H](Cc2ccc(O)cc2)NC1=O [MVIIA, ω-conotoxin MVIIA, reference compound] | almost no increase in fluorescence intensity | oligomers | –
